In the oligonucleotide strings, read from the 5' end, every base follows the letter of its sugar. An asterisk marks phosphorothioate; unmarked linkages are phosphodiester. Other units and linkages are bracketed, terminal groups are in braces. A string of capitals states the bases alone. d = 2'-deoxy (DNA)
Key:
pancreatic cancer = test: Phase I/II study P-001, efficacy (PFS, OS) in pancreatic cancer patients; assay type: in vivo, human
Protocol: At screening, up to 10 “measurable lesions” (i.e. lesions that could be accurately measured in at least 1 dimension with a longest diameter of 2 cm) representative of all involved organs were identified as “target lesions” for tumor response assessment and were measured and documented. All other lesions were defined and recorded as “non-target lesions”. Tumor response was determined by the local investigator every 8 weeks after start of the first trabedersen cycle during follow-up visits, irrespective of whether the patient was still on treatment or off treatment. The tumor assessment was based on Response Evaluation Criteria in Solid Tumors (RECIST 1.0) criteria. The categories of overall tumor response are as follows: (1) Complete response (CR): disappearance of all target and non-target lesions and normalization of tumor marker level; (2) Partial response (PR): at least 30% decrease in the sum of the longest diameter (LD) of target lesions (baseline sum LD as reference) and/or persistence of one or more non-target lesions and/or maintenance of tumor marker level above normal limits; (3) Stable disease (SD): less than 30% decrease or less than 20% increase in sum LD target lesions (smallest sum LD since treatment start as reference) and/or persistence of one or more non-target lesions and/or maintenance of tumor marker level above normal limits; (4) Progressive disease (PD) At least 20% increase in sum LD target lesions (smallest sum LD since treatment start as reference) and/or unequivocal progression of existing nontarget lesions and/or appearance of one or more new lesions; and (5) Unknown.
Progression-free survival (PFS) was defined as the time from Day 1 until tumor progression or death from any cause. The date of progression was either the date of the image showing progression or the date of treatment termination in case one of the reasons for treatment termination was tumor progression (referring to clinical progression as assessed by the Investigator), whichever occurred first.
Overall survival (OS) was defined as the time from Day 1 until death from any cause. All patients were followed for survival during the follow-up assessments every 8 weeks. The survival status was documented at the Final Visit (Day 29) and during the 8-weekly post-treatment follow-up assessments, and was continued to be collected after study closure until database lock or until the patient was lost to follow-up.
There were […] line patients and 11 third line and beyond on the 4 days on and 10 days off regimen. The PFS/OS (progression free survival/overall survival ratio) of these second line patients in months were: 1.87/5.60 (N=6), 1.87/9.93 (N=11) and 2.72/11.80 (N=5) at increasing mean dose of 140 mg/m^2/day, 167 mg/m^2/day, and 196 mg/m^2/day, respectively. The OS of 9.93 and 11.80 are higher than the highest reported in the 65 trials reported in the literature during 1997-2015 (range=2.50-9.20/median=5.50). The corresponding PFS values were in line with reported literature (range=0.00-7.65/median=2.43). […] Trabedersen itself was not having an impact on the tumor (FIG. 1).

A-172 glioma cells [1] = test: A-172 glioma cells, alternative AP12009/TMZ treatment schedules (readout not stated); assay type: cell-based
Protocol: (§1) A-172 glioma cells were treated with a combination of AP12009 (trabedersen) 0 to 10 μM) and different concentrations of TMZ (temozolomide) for 7 days (treatment schedule 2*2/1*3 d).

TGFβ2 [2] = test: TGFβ2 secretion/expression in HUP-T3 pancreatic cancer cells; assay type: cell-based
From the text: (§2) The aim of the study was to determine the effect of AP12009 (trabedersen) treatment in combination with 5-Fluorouracil (5-FU) on TGFβ2 secretion and on cellular proliferation of HUP-T3 pancreatic cancer cells and WiDr colon cancer cells in vitro.

A-172 glioma cells [3] = test: Proliferation of A-172 glioma cells; assay type: cell-based
Protocol: as §1
(§3) In summary there is no clear beneficial effect in combining AP12009 with TMZ in A-172 cells.

[4] = Preclinical toxicology, LOAEL in Cynomolgus monkeys; assay type: in vivo
Protocol: (§4) The clinical starting dose for the 7-days-on and 7-days-off schedule was based on the Lowest-Observed-Adverse-Effect-Level (LOAEL) devoid of severe toxicity in Cynomolgus monkeys as the most relevant species. This LOAEL of 4 mg/kg body weight (b.w.)/day is equivalent to approximately 1.3 mg/kg b.w./day or 48 mg/m^2/day on a body surface area basis in human adults. These numbers were rounded down and the safe starting dose was defined at 40 mg/m^2/day, equivalent to approximately 1 mg/kg b.w./day in humans. An alternative approach would have been based on the lowest lethal dose (LLD) of 300 mg/kg b.w. obtained in the acute single dose toxicity study in mice (in rats it was determined at 1000 mg/kg), at which 1 of 10 mice died (LLD10). According to the standard method, 10% of this dose (30 mg/kg) on a body surface area basis would then be defined as the clinical starting dose resulting in 90 mg/m^2/day. In the end, the lower of the two alternatives was chosen as starting dose.

[5] = Acute single dose toxicity study in mice; assay type: in vivo; conditions: 1 of 10 mice died (LLD10)
Protocol: as §4

TGFβ2 [6] = test: TGFβ2 secretion in A-172 glioma cells; assay type: cell-based
Protocol: as §1, §3

[7] = test system: HUP-T3 pancreatic cancer cells; test: Cellular proliferation of HUP-T3 pancreatic cancer cells in vitro
From the text: as §2

TGFβ2 [8] = test: TGFβ2 secretion/expression in WiDr colon cancer cells; assay type: cell-based
From the text: as §2

A-172 glioma cells [9] = test: Migration of A-172 glioma cells; assay type: cell-based
Protocol: as §1

[10] = FIG. 1, trabedersen as second line treatment
[11] = second line pancreatic cancer patients, 4 days on/10 days off, mean dose 140 mg/m^2/day (N=6)
[12] = second line pancreatic cancer patients, 4 days on/10 days off, mean dose 167 mg/m^2/day (N=11)
[13] = second line pancreatic cancer patients, 4 days on/10 days off, mean dose 196 mg/m^2/day (N=5)
[14] = AP12009 in combination with TMZ
[15] = converted from Cynomolgus LOAEL

Substance: trabedersen: TGF-beta2 specific phosphorothioate antisense oligodeoxynucleotide with the sequence 5′-CGGCATGTCTATTTTGTA-3′ (SEQ ID No: 1) (antisense dC*dG*dG*dC*dA*dT*dG*dT*dC*dT*dA*dT*dT*dT*dT*dG*dT*dA)
- OS (pancreatic cancer; 4/10 cohort treated with subsequent chemotherapies, p=0.0023, Log-rank): 14.7 mos
- OS (pancreatic cancer; 4/10 cohort without subsequent chemotherapies): 2.93 mos
- OS compared to reported median OS (pancreatic cancer; [10]): higher than reported in the literature
- PFS compared to reported median PFS (pancreatic cancer; [10]): not significantly different
- effect on the tumor, as indicated by overall survival rate (pancreatic cancer; FIG. 3, trabedersen alone): does not have a significant effect on the tumor
- effect on overall survival rate (pancreatic cancer; FIG. 3, trabedersen therapy followed by chemotherapy): significant increase in the overall survival rate
- OS (pancreatic cancer; chemotherapy on 2nd line followed by trabedersen 4/10 regimen as third line (N=9), p=0.046 vs trabedersen first): 2.80 mos
- OS (pancreatic cancer; [11]): 5.60 months
- PFS (pancreatic cancer; [11]): 1.87 months
- OS (pancreatic cancer; [12]): 9.93 months
- PFS (pancreatic cancer; [12]): 1.87 months
- OS (pancreatic cancer; [13]): 11.80 months
- PFS (pancreatic cancer; [13]): 2.72 months
- OS (pancreatic cancer; trabedersen on 2nd line followed with subsequent therapies (N=11), p=0.046, Log-rank): 9.93 mos
- benefit of single TMZ treatment combined with 7 day AP12009 treatment (A-172 glioma cells [1]; TMZ day 0 for one day, AP12009 7 days (2*1/1*2/1*3 d)): did not show any benefit or disadvantage
- benefit of pre-treatment with AP12009 (A-172 glioma cells [1]; pre-treatment (1*2/1*3 d) with AP12009 before combined AP12009 and TMZ (2*2/1*3 d)): did not show any benefit
- TGFβ2 expression, % of untreated control (TGFβ2 [2]; 10 μM AP12009 monotherapy): 42%
- combination effect on inhibition of TGFβ2 expression (TGFβ2 [2]; 5-FU added to 10 μM AP12009): sub-additive or even antagonistic effects
- combination effect on cell proliferation (A-172 glioma cells [3]; [14]): no reproducible beneficial effect
- effect on cell proliferation (A-172 glioma cells [3]; monotherapy, 7 days): slightly reduced
- Lowest-Observed-Adverse-Effect-Level (LOAEL) devoid of severe toxicity ([4]; Cynomolgus monkeys): 4 mg/kg body weight (b.w.)/day
- LOAEL, equivalent in human adults [4, 15]: approximately 1.3 mg/kg b.w./day
- LOAEL, equivalent in human adults on a body surface area basis [4, 15]: ~48 mg/m^2/day
- lowest lethal dose (LLD) [5]: 300 mg/kg b.w.
- combination effect on inhibition of TGFβ2 secretion (TGFβ2 [6]; [14]): additive effect
- effect on TGFβ2 (TGFβ2 [6]; monotherapy, 7 days): strongly reduced
- effect on proliferation of adding AP12009 to 5-FU compared with 5-FU alone [7]: did not result in any additional inhibition of proliferation
- cell proliferation, % of untreated control ([7]; HUP-T3, 10 μM AP12009 monotherapy): 53%
- TGFβ2 expression, % of untreated control (TGFβ2 [8]; 10 μM AP12009): 54%
- combination effect on TGFβ2 expression (TGFβ2 [8]; 10 μM AP12009 and 5-FU): sub-additive effects
- effect on migration compared with untreated control (A-172 glioma cells [9]; AP12009 10 μM monotherapy): did not affect migration
- effect of AP12009 on TMZ effect on migration (A-172 glioma cells [9]; [14]): did not influence the effects of TMZ on migration

Reference: patent US9963703B2, “Compositions and methods for treating pancreatic cancer” (Autotelic LLC, priority 2016, dated 2018)
